Measurements published in US9783532B2, “Molecules having certain pesticidal utilities, and intermediates, compositions, and processes related thereto” (Dow AgroSciences LLC, priority 2013, dated 2017).

How the values were obtained:
Assay type in all cases: in vivo
[1] = tested on: Beet Armyworm (Spodoptera exigua) ("BAW"); assay: Bioassay on beet armyworm (BAW), 128-well diet tray assay; details: 168 h, 50 μg/cm^2 on artificial diet, second instar BAW larvae, 25° C., five to seven days, average of eight wells, read-out: BAW % Control (or Mortality) rating
In short: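 Second-instar larvae (one to five per well) were placed on artificial diet surface-treated with 50 μg/cm^2 compound applied in 90:10 acetone-water and dried, eight wells per compound. Held at 25° C., 14:10 light-dark for five to seven days; percent mortality was scored per well and averaged over the eight wells.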

[2] = tested on: Cabbage Looper (Trichoplusia ni) ("CL"); assay: Bioassay on cabbage looper (CL), 128-well diet tray assay; details: 168 h, 50 μg/cm^2 on artificial diet, second instar CL larvae, 25° C., five to seven days, average of eight wells, read-out: CL % Control (or Mortality) rating
In short: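 Second-instar larvae (one to five per well) placed on artificial diet surface-treated with 50 μg/cm^2 compound in 90:10 acetone-water, dried before infestation. Held 25 °C, 14:10 light-dark for five to seven days; percent mortality scored per well and averaged over eight wells.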

[3] = tested on: Green Peach Aphid ("GPA") (Myzus persicae); assay: Bioassay on green peach aphid (GPA), foliar spray on cabbage seedlings; details: Myzus persicae, foliar, 72 h; 200 ppm spray on infested cabbage seedlings, three days, Abbott corrected % control; read-out: GPA % Control (or Mortality) rating
Description: Certain molecules disclosed in this document were tested against GPA using procedures described in the following example. In the reporting of the results, the “GPA Rating Table” was used (See Table Section).
Cabbage seedlings grown in 3-inch pots, with 2-3 small (3-5 cm) true leaves, were used as test substrate. The seedlings were infested with 20-50 GPA (wingless adult and nymph stages) one day prior to chemical application. Four pots with individual seedlings were used for each treatment. Test compounds (2 mg) were dissolved in 2 mL of acetone/methanol (1:1) solvent, forming stock solutions of 1000 ppm test compound. The stock solutions were diluted 5× with 0.025% Tween 20 in water to obtain the solution at 200 ppm test compound. A hand-held aspirator-type sprayer was used for spraying a solution to both sides of […] leaves until runoff. Reference plants (solvent check) were sprayed with the diluent only containing 20% by volume of acetone/methanol (1:1) solvent. Treated plants were held in a holding room for three days at approximately 25° C. and ambient relative humidity (RH) prior to grading. Evaluation was conducted by counting the number of live aphids per plant under a microscope. Percent Control was measured by using Abbott's correction formula (W. S. Abbott, “A Method of Computing the Effectiveness of an Insecticide” J. Econ. Entomol. 18 (1925), pp. 265-267) as follows. Corrected % Control=100*(X−Y)/X • where • X=No. of live aphids on solvent check plants and • Y=No. of live aphids on treated plants

In the case of `Cc1ccc(C(C)C)c(NC(=S)NC(=O)NCCc2ccc(-c3ncn(-c4ccc(OC(F)(F)F)cc4)n3)cc2)c1` [F3, N-[5-methyl-2-isopropylphenyl]-N′-[2-(4-{1-[4-(trifluoromethoxy)-phenyl]-1H-1,2,4-triazol-3-yl}phenyl)ethyl]dicarbonimidothioic diamide], the mortality at 50 µg/cm2 [1] is reported as 50 to 100%, the mortality at 50 µg/cm2 [2] is reported as 50 to 100% and the mortality at 200 ppm [3] is reported as 0 to 80%.
`Cc1ccc(C(C)C)c(N2C(=O)CS/C2=N\C(=O)NC(C)Cc2ccc(-c3ncn(-c4ccc(OC(F)(F)F)cc4)n3)cc2)c1` (stereo not drawn) [F8, (Z)-1-(3-(2-isopropropyl-5-methylphenyl)-4-oxothiazolidin-2-ylidene)-3-(1-(4-(1-(4-(trifluoromethoxy)phenyl)-1H-1,2,4-triazol-3-yl)phenyl)propan-2-yl)urea] gave a mortality at 50 µg/cm2 [1] of 50 to 100%, a mortality at 50 µg/cm2 [2] of 50 to 100% and a mortality at 200 ppm [3] of 0%.
`CC(C)c1ccccc1NC(=S)NC(=O)N/C=C/c1ccc(-c2ncn(-c3ccc(OC(F)(F)F)cc3)n2)cc1` [F11] showed a mortality at 50 µg/cm2 [1] of 50 to 100%, a mortality at 50 µg/cm2 [2] of 50 to 100% and a mortality at 200 ppm [3] of 0%.
`CC(C)c1ccccc1N1C(=O)CS/C1=N\C(=O)N/C=C/c1ccc(-c2ncn(-c3ccc(OC(F)(F)F)cc3)n2)cc1` [F12] gave a mortality at 50 µg/cm2 [1] of 50 to 100%, a mortality at 50 µg/cm2 [2] of 50 to 100% and a mortality at 200 ppm [3] of 0%.
Work on `C/C(=C\NC(=O)/N=C1\SCC(=O)N1c1ccccc1C(C)C)c1ccc(-c2ncn(-c3ccc(OC(F)(F)F)cc3)n2)cc1` [F13, (Z)-1-(3-(2-isopropylphenyl)-4-oxothiazolidin-2-ylidene)-3-((E)-2-(4-(1-(4-(trifluoromethoxy)phenyl)-1H-1,2,4-triazol-3-yl)phenyl)prop-1-en-1-yl)urea] yielded a mortality at 50 µg/cm2 [1] of 50 to 100%, a mortality at 50 µg/cm2 [2] of 50 to 100% and a mortality at 200 ppm [3] of 0%.
With `CC(C)c1ccccc1NC(=S)NC(=O)NC1CC1c1ccc(-c2ncn(-c3ccc(OC(F)(F)F)cc3)n2)cc1` (stereo not drawn) [F22] the mortality at 50 µg/cm2 [1] was 50 to 100%, the mortality at 50 µg/cm2 [2] was 50 to 100% and the mortality at 200 ppm [3] was 0%.
With `CCCc1ccccc1NC(=S)NC(=O)NC1CC1c1ccc(-c2ncn(-c3ccc(OC(F)(F)F)cc3)n2)cc1` (stereo not drawn) [F23] the mortality at 50 µg/cm2 [1] was 50 to 100%, the mortality at 50 µg/cm2 [2] was 50 to 100% and the mortality at 200 ppm [3] was 0%.
In the case of `CCc1cccc(C)c1NC(=S)NC(=O)NC1CC1c1ccc(-c2ncn(-c3ccc(OC(F)(F)F)cc3)n2)cc1` (stereo not drawn) [F24, N-(2-ethyl-6-methylphenyl)-N′-[2-(4-(1-[4-(trifluoromethoxy)phenyl]-1H-1,2,4-triazol-3-yl)phenyl)cyclopropyl]dicarbonimidothioic diamide], the mortality at 50 µg/cm2 [1] is reported as 50 to 100%, the mortality at 50 µg/cm2 [2] is reported as 50 to 100% and the mortality at 200 ppm [3] is reported as 0%.
`Cc1cccc(C)c1NC(=S)NC(=O)NC1CC1c1ccc(-c2ncn(-c3ccc(OC(F)(F)F)cc3)n2)cc1` (stereo not drawn) [F25] was tested, and the mortality at 50 µg/cm2 [1] was 50 to 100%, the mortality at 50 µg/cm2 [2] was 50 to 100% and the mortality at 200 ppm [3] was 0%.
In the case of `CCc1ccc(C)cc1NC(=S)NC(=O)NC1CC1c1ccc(-c2ncn(-c3ccc(OC(F)(F)F)cc3)n2)cc1` (stereo not drawn) [F27, N-(2-ethyl-5-methylphenyl)-N′-[2-(4-{1-[4-(trifluoromethoxy)phenyl]-1H-1,2,4-triazol-3-yl}phenyl)cyclopropyl]dicarbonimidothioic diamide], the mortality at 50 µg/cm2 [1] is reported as 50 to 100%, the mortality at 50 µg/cm2 [2] is reported as 50 to 100% and the mortality at 200 ppm [3] is reported as 0%.
Work on `Cc1ccc(C(C)C)c(NC(=S)NC(=O)NC2CC2c2ccc(-c3ncn(-c4ccc(OC(F)(F)F)cc4)n3)cc2)c1` (stereo not drawn) [F28, N-[5-methyl-2-(propan-2-yl)phenyl]-N-[2-(4-{1-[4-(trifluoromethoxy)phenyl]-1H-1,2,4-triazol-3-yl}phenyl)cyclopropyl]dicarbonimidothioic diamide] yielded a mortality at 50 µg/cm2 [1] of 50 to 100%, a mortality at 50 µg/cm2 [2] of 50 to 100% and a mortality at 200 ppm [3] of 0%.
`CCCc1ccccc1N1C(=O)CS/C1=N\C(=O)NC1CC1c1ccc(-c2ncn(-c3ccc(OC(F)(F)F)cc3)n2)cc1` (stereo not drawn) [F30, (Z)-1-(4-oxo-3-(2-propylphenyl)thiazolidin-2-ylidene)-3-(2-(4-(1-(4-(trifluoromethoxy)phenyl)-1H-1,2,4-triazol-3-yl)phenyl)cyclopropyl)urea] showed a mortality at 50 µg/cm2 [1] of 50 to 100%, a mortality at 50 µg/cm2 [2] of 50 to 100% and a mortality at 200 ppm [3] of 0%.
